In BindingDB's records for doi:10.1124/jpet.300.1.314 (Glaxosmithkline, 2002):
Several values for one entry are separate records, joined by “and”; a condition that tells them apart may be missing. Equal entries are not always repeated.

Experiments:
Substance-K receptor [1] = target: T1, Substance-K receptor (Cavia porcellus, UniProt Q64077)
T1 sequence (Q64077 whole entry): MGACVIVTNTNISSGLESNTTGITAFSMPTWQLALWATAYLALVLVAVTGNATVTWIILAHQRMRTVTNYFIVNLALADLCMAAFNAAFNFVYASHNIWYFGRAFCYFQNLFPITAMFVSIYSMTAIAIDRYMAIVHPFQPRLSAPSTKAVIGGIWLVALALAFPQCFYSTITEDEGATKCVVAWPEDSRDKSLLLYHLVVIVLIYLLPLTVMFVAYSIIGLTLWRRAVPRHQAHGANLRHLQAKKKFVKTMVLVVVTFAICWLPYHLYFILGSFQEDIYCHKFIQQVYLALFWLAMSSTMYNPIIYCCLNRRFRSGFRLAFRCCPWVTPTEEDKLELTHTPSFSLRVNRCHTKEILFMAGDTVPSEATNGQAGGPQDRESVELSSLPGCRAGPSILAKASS

Substance-K receptor [2] = target: T2, Substance-K receptor (Rattus norvegicus, UniProt P16610)
T2 sequence (P16610 whole entry): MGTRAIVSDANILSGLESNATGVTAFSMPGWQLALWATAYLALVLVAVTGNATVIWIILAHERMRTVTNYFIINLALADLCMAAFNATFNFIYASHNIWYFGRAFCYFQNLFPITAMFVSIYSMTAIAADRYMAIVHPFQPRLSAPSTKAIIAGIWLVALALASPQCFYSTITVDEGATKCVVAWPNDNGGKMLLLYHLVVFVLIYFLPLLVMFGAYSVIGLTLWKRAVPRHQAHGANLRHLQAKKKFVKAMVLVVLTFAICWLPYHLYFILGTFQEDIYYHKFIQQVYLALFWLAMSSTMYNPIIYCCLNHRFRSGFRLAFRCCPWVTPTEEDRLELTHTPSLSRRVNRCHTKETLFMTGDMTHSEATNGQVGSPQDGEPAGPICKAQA

CC[C@H](NC(=O)c1c(OCC(=O)O)c(-c2ccccc2)nc2ccccc12)c1ccccc1 [N-[(S)-1-Phenylpropyl]-2-phenyl-3-(carboxymethoxy)quinoline-4-carboxamide]
Ki (Substance-K receptor [1]): > 10 µM | Ki (Substance-K receptor [2]): 2.33 µM and 5.25 µM
